pIC50: −log10 of the molar value.
How the values were obtained:
Dihydrofolate reductase = Dihydrofolate reductase (Lactobacillus casei, UniProt P00381); assay: Inhibitory activity against dihydrofolate reductase of Lactobacillus casei; set-up: species or system Lacticaseibacillus casei
L1210 [1] = assay: Inhibition of thymidylate synthesis in L1210 cells at 100 uM; type: functional; conditions: Mus musculus
L1210 [2] = assay: Inhibition of thymidylate synthesis in L1210 intact cells at 10 uM; type: functional; conditions: Mus musculus
Lacticaseibacillus casei [3] = assay: Inhibitory activity against Lactobacillus casei ATCC 7469; type: functional, organism-based
Thymidylate synthase = molecular target: T1, Thymidylate synthase (Lactobacillus casei, UniProt P00469); assay: Inhibitory activity against thymidylate synthase of Lactobacillus casei; set-up: species or system Lacticaseibacillus casei
T1 sequence (P00469 whole entry): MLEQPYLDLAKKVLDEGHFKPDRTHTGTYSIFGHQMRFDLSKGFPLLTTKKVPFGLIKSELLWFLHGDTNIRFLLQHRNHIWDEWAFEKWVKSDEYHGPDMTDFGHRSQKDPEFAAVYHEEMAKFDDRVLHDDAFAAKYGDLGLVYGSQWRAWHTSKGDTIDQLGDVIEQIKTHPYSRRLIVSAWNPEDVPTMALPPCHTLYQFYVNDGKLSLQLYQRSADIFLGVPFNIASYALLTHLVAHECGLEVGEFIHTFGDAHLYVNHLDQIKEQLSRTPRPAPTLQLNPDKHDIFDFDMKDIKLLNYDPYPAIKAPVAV

Enterococcus faecium [4] = assay: Inhibitory activity against Streptococcus faecium ATCC 8043; type: functional, organism-based
Enterococcus faecium [5] = assay: Inhibitory activity against Streptococcus faecium MTX-resistant; type: functional, organism-based
L1210 [6] = assay: Inhibition of thymidylate synthesis in permeabilised cells; type: functional, cell-based; conditions: Mus musculus
Lacticaseibacillus casei [7] = assay: Inhibitory activity against Lactobacillus casei MTX-resistant; type: functional, organism-based

Dihydrofolate reductase, sequence (P00381 whole entry): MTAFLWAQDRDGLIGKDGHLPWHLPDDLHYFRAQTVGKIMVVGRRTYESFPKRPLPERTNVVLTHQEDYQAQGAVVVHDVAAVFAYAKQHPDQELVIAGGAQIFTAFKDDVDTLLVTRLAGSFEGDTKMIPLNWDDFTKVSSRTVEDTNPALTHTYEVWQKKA

| Compound | pIC50 (Dihydrofolate reductase) | inhibition at 100 µM (L1210 [1]) | inhibition at 10 µM (L1210 [2]) | pIC50 (Lacticaseibacillus casei [3]) | pIC50 (Thymidylate synthase) | pIC50 (Enterococcus faecium [4]) | pIC50 (Enterococcus faecium [5]) | pIC50 (L1210 [6]) | pIC50 (Lacticaseibacillus casei [7]) |
| --- | --- | --- | --- | --- | --- | --- | --- | --- | --- |
| C#CN(Cc1ccc2nc(N)nc(O)c2c1)c1ccc(C(=O)NC(CCC(=O)O)C(=O)NC(CCC(=O)NC(CCC(=O)NC(CCC(=O)O)C(=O)O)C(=O)O)C(=O)O)cc1 (stereo unspecified) | 5.43 | 3% | 0% | 9.74 | 7.85 | 7.12 | < 6.10 | 8.85 | < 4.70 |
| C#CN(Cc1ccc2nc(N)nc(O)c2c1)c1ccc(C(=O)NC(CCC(=O)O)C(=O)NC(CCC(=O)NC(CCC(=O)NC(CCC(=O)NC(CCC(=O)O)C(=O)O)C(=O)O)C(=O)O)C(=O)O)cc1 (stereo unspecified) | 5.54 | 8% | 0% | 9.46 | 7.89 | < 7.10 | < 6.10 | 8.70 | < 4.70 |
| Nc1nc(O)c2cc(CN(CC3CC3)c3ccc(C(=O)N[C@@H](CCC(=O)O)C(=O)O)cc3)ccc2n1 | 5.64 | – | – | 8.09 | 4.92 | 8.59 | 5.82 | 4.09 | < 4.70 |
| C#CN(Cc1ccc2nc(N)nc(O)c2c1)c1ccc(C(=O)NC(CCC(=O)O)C(=O)NC(CCC(=O)O)C(=O)O)cc1 (stereo unspecified) | – | 32% | 0% | 10.30 | – | 9.44 | 6.90 | 8.22 | 6.55 |
| C#CN(Cc1ccc2nc(N)nc(O)c2c1)c1ccc(C(=O)NC(CCC=O)C(=O)O)cc1 (stereo unspecified) | – | 87% | 55% | 9.40 | – | 9.89 | 7.70 | 7.52 | – |
| CC#CCN(Cc1ccc2nc(N)nc(O)c2c1)c1ccc(C(=O)N[C@@H](CCC(=O)O)C(=O)O)cc1 | 3.60 | – | – | 7.07 | 5.36 | 8.17 | 5.80 | 4.85 | < 4.70 |
| C#CN(Cc1ccc2nc(N)nc(O)c2c1)c1ccc(C(=O)NC(CCC(=O)NC(CCC(=O)NC(CCC(=O)O)C(=O)O)C(=O)O)C(=O)O)cc1 (stereo unspecified) | 5.28 | 8% | 0% | 10.10 | 7.85 | 7.47 | < 6.10 | 8.70 | 5.96 |
| CN(Cc1cnc2nc(N)nc(N)c2n1)c1ccc(C(=O)N[C@@H](CCC(=O)O)C(=O)O)cc1 [METHOTREXATE] | – | 98% | 95% | 10.52 | – | 9.52 | 5.41 | 4.22 | < 3.00 |

Reference: ChEMBL document CHEMBL1123439, “Folate analogues. 26. Syntheses and antifolate activity of 10-substituted derivatives of 5,8-dideazafolic acid and of the poly-gamma-glutamyl metabolites of N10-propargyl-5,8-dideazafolic acid (PDDF)” (J Med Chem, 1986)
